Measurements published in ChEMBL document CHEMBL1201862, “PubChem BioAssay data set” (2004).
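These data come from cells grown in 96-well plates and exposed to compound for 48 hours at five concentrations. GI50 is the concentration that inhibits growth by half.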 Calls of active or inactive are those of the source. Rule as the data show it: active = GI50 up to about 1.1 µM and inactive = higher.

Columns and labels:
Assay in all cases: inhibition of tumour cell growth, NCI panel, 48 h
K562 = system: K562
OVCAR-5 = system: OVCAR-5
SN12C = system: SN12C
OVCAR-3 = system: OVCAR-3
MCF7 = system: MCF7
NCI-H460 = system: NCI-H460
KM12 = system: KM12
SNB-19 = system: SNB-19
COLO 205 = system: COLO 205
HL-60 = system: HL-60
BT-549 = system: BT-549
HT-29 = system: HT-29
LOX IMVI = system: LOX IMVI
SK-MEL-2 = system: SK-MEL-2
CCRF-CEM = system: CCRF-CEM
SW-620 = system: SW-620
HOP-62 = system: HOP-62
OVCAR-8 = system: OVCAR-8
NCI-H23 = system: NCI-H23
DMS-114 = system: DMS-114

Compound | GI50 (K562) | GI50 (OVCAR-5) | GI50 (SN12C) | GI50 (OVCAR-3) | GI50 (MCF7) | GI50 (NCI-H460) | GI50 (KM12) | GI50 (SNB-19) | GI50 (COLO 205) | GI50 (HL-60) | GI50 (BT-549) | GI50 (HT-29) | GI50 (LOX IMVI) | GI50 (SK-MEL-2) | GI50 (CCRF-CEM) | GI50 (SW-620) | GI50 (HOP-62) | GI50 (OVCAR-8) | GI50 (NCI-H23) | GI50 (DMS-114)
CCNC(=S)NNC(=O)C12CC3CC(CC(C3)C1)C2 | > 100 µM (inactive) | > 100 µM (inactive) | > 100 µM (inactive) | > 100 µM (inactive) | > 100 µM (inactive) | > 100 µM (inactive) | > 100 µM (inactive) | > 100 µM (inactive) | > 100 µM (inactive) | > 100 µM (inactive) | > 100 µM (inactive) | > 100 µM (inactive) | > 100 µM (inactive) | > 100 µM (inactive) | > 100 µM (inactive) | > 100 µM (inactive) | > 100 µM (inactive) | > 100 µM (inactive) | > 100 µM (inactive) | 
O=C(O)CCSCc1ccccc1 | > 100 µM (inactive) | > 100 µM (inactive) | > 100 µM (inactive) | > 100 µM (inactive) | > 100 µM (inactive) | > 100 µM (inactive) | > 100 µM (inactive) | > 100 µM (inactive) | > 100 µM (inactive) | > 100 µM (inactive) | > 100 µM (inactive) | > 100 µM (inactive) | > 100 µM (inactive) | > 100 µM (inactive) | > 100 µM (inactive) | > 100 µM (inactive) | > 100 µM (inactive) | > 100 µM (inactive) | > 100 µM (inactive) | 
CCOC(=O)Cn1nnc2ccc(Nc3nc4ccccc4nc3C(=O)OCC)cc21 | > 100 µM (inactive) | > 100 µM (inactive) | > 100 µM (inactive) | > 100 µM (inactive) | > 100 µM (inactive) | > 100 µM (inactive) | > 100 µM (inactive) | 69.5 µM (inactive) | > 100 µM (inactive) | > 100 µM (inactive) | 73.8 µM (inactive) | > 100 µM (inactive) | > 100 µM (inactive) | > 100 µM (inactive) | > 100 µM (inactive) | > 100 µM (inactive) | 38.3 µM (inactive) | > 100 µM (inactive) | 45.9 µM (inactive) | 
OCCOCCO[P+]1(OCCOCCO)n2c3ccc2C(c2ccccc2)=C2C=CC(=N2)C(c2ccccc2)=c2ccc(n21)=C(c1ccccc1)C1=NC(=C3c2ccccc2)C=C1 | < 0.0188 µM (active) | 0.525 µM (active) | 0.11 µM (active) | 0.033 µM (active) | 0.109 µM (active) | 0.076 µM (active) | 0.0331 µM (active) | < 0.01 µM (active) | 0.0206 µM (active) | 0.0235 µM (active) | 0.0385 µM (active) | 0.0845 µM (active) | 0.0989 µM (active) | 0.0395 µM (active) | 0.0231 µM (active) | 0.184 µM (active) | 0.379 µM (active) | 0.174 µM (active) | 0.105 µM (active) | 
O=C(O)CSc1ccccc1C(=O)O | > 100 µM (inactive) | > 100 µM (inactive) | > 100 µM (inactive) | > 100 µM (inactive) | > 100 µM (inactive) | 20.7 µM (inactive) | > 100 µM (inactive) | > 100 µM (inactive) | > 100 µM (inactive) | 6.03 µM (inactive) | > 100 µM (inactive) | > 100 µM (inactive) | > 100 µM (inactive) | > 100 µM (inactive) | > 100 µM (inactive) | > 100 µM (inactive) | > 100 µM (inactive) | > 100 µM (inactive) | > 100 µM (inactive) | 
COc1ccc(C2c3cc4c(cc3OC(NNS(=O)(=O)c3ccc(C)cc3)C2C)OCO4)cc1 (configuration not stated) | 10.6 µM (inactive) | > 100 µM (inactive) | > 100 µM (inactive) | 80.7 µM (inactive) | 41.1 µM (inactive) | 41 µM (inactive) | 65.9 µM (inactive) | > 100 µM (inactive) | 36.3 µM (inactive) | 21.6 µM (inactive) | 53.5 µM (inactive) | 93.8 µM (inactive) | 79.8 µM (inactive) | 59.7 µM (inactive) | 11.1 µM (inactive) | 73.5 µM (inactive) | > 100 µM (inactive) | > 100 µM (inactive) | 99.8 µM (inactive) | 
O=C(O)c1ccccc1/C=C1\Cc2cc3c(cc2C1=O)CCC3 | 17.1 µM (inactive) | 57.1 µM (inactive) | 20.4 µM (inactive) | 31.2 µM (inactive) | 20.7 µM (inactive) | 24.2 µM (inactive) | 19.2 µM (inactive) | 26.7 µM (inactive) | 21.9 µM (inactive) | 6.59 µM (inactive) | 56.9 µM (inactive) | 19.2 µM (inactive) | 14.9 µM (inactive) | 23.4 µM (inactive) | 18.8 µM (inactive) | 21.8 µM (inactive) | 25.3 µM (inactive) | 26.3 µM (inactive) | 18.1 µM (inactive) | 
COc1ccc(-c2cc(C(=O)Nc3ccc(C)c(C)c3)nc(NC#N)n2)cc1 | > 100 µM (inactive) | > 100 µM (inactive) | > 100 µM (inactive) | > 100 µM (inactive) |  | > 100 µM (inactive) | > 100 µM (inactive) | > 100 µM (inactive) | > 100 µM (inactive) |  |  | > 100 µM (inactive) | > 100 µM (inactive) | > 100 µM (inactive) | > 100 µM (inactive) | > 100 µM (inactive) |  | > 100 µM (inactive) | > 100 µM (inactive) | > 100 µM (inactive)
NCC(=O)Nc1ccc(Cl)cc1C(=O)c1ccc[nH]1 | 10.5 µM (inactive) | 55.6 µM (inactive) | > 36.3 µM (inactive) | 40.9 µM (inactive) | 6.31 µM (inactive) | 10.4 µM (inactive) | 34 µM (inactive) | > 100 µM (inactive) | > 86.1 µM (inactive) | 15.1 µM (inactive) | 70.3 µM (inactive) | 25.5 µM (inactive) | 9.95 µM (inactive) | 61.1 µM (inactive) | 3.42 µM (inactive) | 13.6 µM (inactive) | > 94.2 µM (inactive) | > 56.8 µM (inactive) | 14.3 µM (inactive) | 
O=C(CNc1ccc(Cl)cc1)Nn1c(-c2ccccc2)nc2ccccc2c1=O | 3.35 µM (inactive) | 14.7 µM (inactive) | 7.43 µM (inactive) | 12.1 µM (inactive) | 3.32 µM (inactive) | 8.79 µM (inactive) | 10.8 µM (inactive) | 10.8 µM (inactive) | 6.82 µM (inactive) | 6.65 µM (inactive) | 2.32 µM (inactive) | 6.27 µM (inactive) | 1.3 µM (inactive) | 16 µM (inactive) | 2.04 µM (inactive) | 5.12 µM (inactive) | 14.9 µM (inactive) | 3.72 µM (inactive) | 5.43 µM (inactive) | 
CC(C)(C)CN1[C@@H]2CCCC[C@H]2N(CC(C)(C)C)P1(=O)Cc1ccccc1 | 13.6 µM (inactive) | 12.7 µM (inactive) | 16.3 µM (inactive) | 10.7 µM (inactive) | 12.8 µM (inactive) | 13.2 µM (inactive) | 13.1 µM (inactive) | 14.6 µM (inactive) | 10.4 µM (inactive) | 11.3 µM (inactive) | 17.1 µM (inactive) | 10.1 µM (inactive) | 15.7 µM (inactive) | 16.1 µM (inactive) | 11 µM (inactive) | 14 µM (inactive) | 16.4 µM (inactive) | 14.4 µM (inactive) | 13 µM (inactive) | 
Cc1sc2[nH]c(=O)oc(=O)c2c1C | > 96.4 µM (inactive) | > 100 µM (inactive) | > 76.2 µM (inactive) | 55 µM (inactive) | 26.1 µM (inactive) | > 100 µM (inactive) | 34.9 µM (inactive) | > 100 µM (inactive) | 59 µM (inactive) | 37 µM (inactive) | 22.9 µM (inactive) | > 71.9 µM (inactive) | 44.6 µM (inactive) | 37.7 µM (inactive) | 39.6 µM (inactive) | > 80.4 µM (inactive) | 72.8 µM (inactive) | 65.8 µM (inactive) | > 100 µM (inactive) | 
COc1cc2c(c(OC)c1OC)-c1ccc(=O)c(O)cc1[C@@H](NC(C)=O)CC2 [COLCHICEINE] | 15.6 µM (inactive) | 33.5 µM (inactive) | 16.8 µM (inactive) | 29.6 µM (inactive) | 17 µM (inactive) | 12.3 µM (inactive) | 15 µM (inactive) | 25.4 µM (inactive) | 19.4 µM (inactive) | 4.99 µM (inactive) | 14.6 µM (inactive) | 16.1 µM (inactive) | 12.6 µM (inactive) | 25.5 µM (inactive) | 11.9 µM (inactive) | 26.5 µM (inactive) | 24.9 µM (inactive) | 13.3 µM (inactive) | 10.6 µM (inactive) | 
Cc1c(-c2ccccc2)c(C#N)c2nnn(C3CCCCC3)c(=O)n12 | 88.3 µM (inactive) | 94.4 µM (inactive) | 98.2 µM (inactive) | > 100 µM (inactive) | > 100 µM (inactive) | > 100 µM (inactive) | > 100 µM (inactive) | 66.5 µM (inactive) | 88.1 µM (inactive) | > 100 µM (inactive) | > 100 µM (inactive) | 11.6 µM (inactive) | > 100 µM (inactive) | 31.6 µM (inactive) | > 100 µM (inactive) | > 100 µM (inactive) | 14.7 µM (inactive) | 44 µM (inactive) | > 100 µM (inactive) | 
O=C(Oc1ccccc1)c1cc2cc(CCl)ccc2oc1=O | 5.61 µM (inactive) | 97.7 µM (inactive) | 23.1 µM (inactive) | 29.1 µM (inactive) | 20.1 µM (inactive) | 20.3 µM (inactive) | 63.4 µM (inactive) | 71.6 µM (inactive) | 17.8 µM (inactive) | 18.2 µM (inactive) | 64.3 µM (inactive) | 24.4 µM (inactive) | 49.4 µM (inactive) | 3.17 µM (inactive) | 24.3 µM (inactive) | 61.9 µM (inactive) | 26.5 µM (inactive) | 47.2 µM (inactive) | 15.5 µM (inactive) | 
